Laboratory results as given in publication PMC4747398, “Isothiocyanatostilbenes as novel c-Met inhibitors” (Oncotarget, 2015).
pIC50: −log10 of the molar value. Read-outs that look alike come from different tables or passages of the source.

What was measured:
c-Met [1] = molecular target: T1, c-Met (Homo sapiens, UniProt P08581); test: HGF-induced c-Met phosphorylation, western blot, DU145; type: cell-based; parameters: endogenous in cells; host or cells: DU145; conditions: for effective concentration for c-Met inhibition in 10% FBS versus serum-free: DU145, 33 ng/ml HGF 20 minutes, 10% FBS RPMI; for reduction of c-Met activation: 8 μM compound, western blot densitometry
T1 sequence (P08581 25-1390): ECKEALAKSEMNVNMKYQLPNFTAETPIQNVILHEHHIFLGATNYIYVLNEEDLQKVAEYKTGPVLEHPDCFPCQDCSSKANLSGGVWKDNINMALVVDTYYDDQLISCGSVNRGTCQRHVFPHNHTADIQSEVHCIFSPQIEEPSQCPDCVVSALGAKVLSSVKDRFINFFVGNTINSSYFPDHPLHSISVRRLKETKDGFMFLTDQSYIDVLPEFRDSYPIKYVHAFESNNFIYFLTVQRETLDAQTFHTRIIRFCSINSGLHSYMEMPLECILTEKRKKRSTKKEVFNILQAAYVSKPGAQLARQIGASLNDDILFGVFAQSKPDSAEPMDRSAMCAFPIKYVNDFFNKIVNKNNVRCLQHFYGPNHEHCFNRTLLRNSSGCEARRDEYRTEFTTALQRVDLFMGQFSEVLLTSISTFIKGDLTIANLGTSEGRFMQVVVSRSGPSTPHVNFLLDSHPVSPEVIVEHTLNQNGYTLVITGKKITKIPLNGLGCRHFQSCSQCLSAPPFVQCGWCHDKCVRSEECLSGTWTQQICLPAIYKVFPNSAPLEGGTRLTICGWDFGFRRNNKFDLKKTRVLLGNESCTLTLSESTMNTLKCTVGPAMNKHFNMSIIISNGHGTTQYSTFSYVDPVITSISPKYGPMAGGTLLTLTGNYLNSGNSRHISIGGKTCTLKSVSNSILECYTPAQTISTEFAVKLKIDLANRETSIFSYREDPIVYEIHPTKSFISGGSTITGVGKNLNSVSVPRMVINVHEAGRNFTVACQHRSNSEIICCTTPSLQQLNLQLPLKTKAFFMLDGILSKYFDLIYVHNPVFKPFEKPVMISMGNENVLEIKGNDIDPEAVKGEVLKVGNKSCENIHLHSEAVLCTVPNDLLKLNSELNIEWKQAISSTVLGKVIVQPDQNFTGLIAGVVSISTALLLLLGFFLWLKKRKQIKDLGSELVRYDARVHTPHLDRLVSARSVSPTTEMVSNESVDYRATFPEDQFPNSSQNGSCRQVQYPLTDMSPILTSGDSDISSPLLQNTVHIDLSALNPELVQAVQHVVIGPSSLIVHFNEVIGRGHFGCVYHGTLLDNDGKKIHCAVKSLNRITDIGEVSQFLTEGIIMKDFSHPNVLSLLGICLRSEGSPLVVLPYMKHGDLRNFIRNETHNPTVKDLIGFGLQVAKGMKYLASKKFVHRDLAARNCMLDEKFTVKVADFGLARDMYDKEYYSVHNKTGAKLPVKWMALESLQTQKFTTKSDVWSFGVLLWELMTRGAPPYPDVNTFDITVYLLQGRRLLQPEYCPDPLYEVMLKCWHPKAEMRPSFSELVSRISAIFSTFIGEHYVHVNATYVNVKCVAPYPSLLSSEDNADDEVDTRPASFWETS
Procedure: (§1) Cells were grown to ~70% confluency prior to treatment. Cells were serum-starved in serum-free media for 30 minutes prior to treatment in complete media or serum-free media for the indicated times. Cell lysates were collected in Laemmli (125 mM Tris, 4% SDS, 0.01% bromophenol blue, 30% sucrose) containing 0.5% β-mercaptoethanol and boiled ~8 minutes. Primary antibodies include: phospho-c-Met (Y1234/1235), phospho-Akt (S473), pEGFR (S845), pIGF-IRβ (Y1135/1136) (Cell Signaling Technology; Beverly, MA); α-actin (Sigma-Aldrich), c-Met (C-28) (Life Technologies). Secondary antibodies include: horseradish peroxidase-conjugated anti-rabbit and anti-mouse (GE Healthcare; Pittsburgh, PA). ECL 2 was used for chemiluminescent detection (Thermo Scientific; Rockford, IL). Densitometry was calculated using ImageJ (NIH).

DU145 cells [2] = test: EGF-induced wound healing; type: cell-based; conditions: DU145, 100 ng/ml EGF, 4 μM DIDS or 25 μM H2DIDS
Procedure: (§2) DU145 cells were grown to ~100% confluency prior to wounding with the IncuCyte™ WoundMaker™ (Essen Bioscience; Ann Arbor, MI) and washed once with complete media. For invasion, cells were covered with Matrigel diluted 1:5 in serum-free RPMI following wounding. Cells were treated with 4 μM DIDS or 25 μM H2DIDS with or without 33 ng/ml HGF or 100 ng/ml EGF for up to 4 days. Images were taken every 4 hours with the IncuCyte™ ZOOM imaging system (Essen Bioscience). Quadruplicate replicates were used in each experiment. Data are presented as percent wound density ± standard error of the mean (S.E.M.).

IGFR = molecular target: T2, IGFR (Homo sapiens, UniProt P08069); test: IGF-induced IGFR activation, western blot, DU145; type: cell-based; conditions: DU145, 100 ng/ml IGF 20 minutes, 4 μM DIDS or 25 μM H2DIDS
T2 construct: endogenous in cells; host or cells: DU145
Procedure: as §1

DU145 cells [3] = test: HGF-induced cell scattering assay; type: cell-based; conditions: DU145, 33 ng/ml HGF overnight, 4 μM DIDS or 25 μM H2DIDS
Procedure: DU145 cells were grown to ~50% confluency. Cells were treated overnight with 4 μM DIDS or 25 μM H2DIDS in the presence or absence of 33 ng/ml HGF or 100 ng/ml EGF. Cells were fixed with 4% paraformaldehyde and stained with Oregon Green 488 phalloidin (Invitrogen; Carlsbad, CA). Images were acquired on an Eclipse TE300 inverted microscope (Nikon; Tokyo, Japan) with NIS Elements version 4.13.04 software. Presented images were taken using a 10X objective.

DU145 spheroids = test: 3D spheroid proliferation in Matrigel; type: cell-based; conditions: 5 μM compound, 33 ng/ml HGF, 72 hours
Procedure: Prior to seeding, cells were incubated with 2.5 ng/μl CellTracker Red (Life Technologies) in complete DMEM lacking Phenol Red for 5 minutes at room temperature then centrifuged at 1000 RPM for 5 minutes. Dyed cells were resuspended in complete DMEM lacking Phenol Red and containing 5% Matrigel before adding 5 μM, 10 μM, 20 μM, or 40 μM DIDS or H2DIDS +/− HGF. The mixture of cells, treatments, and Matrigel in complete media was seeded at 2000 cells/well in a 96 well plate. The plate was centrifuged at 1000 RPM for 3 minutes to collect the cells into the bottom of the plate. Spheroid growth was imaged for up to 80 hours and analyzed for average red object area using the IncuCyte™ ZOOM software. […] Images were captured by the IncuCyte™ ZOOM imaging system and representative 10X images are shown.

[4] = tested on: MDA-MB-231/GFP human breast cancer cells; test: Orthotopic breast tumor xenograft; type: in vivo; conditions: mice, 5 mg/kg then 10 mg/kg i.p.
Procedure: (§3) All animal experiments were approved by the Institutional Animal Care and Use Committee, University of Louisiana at Monroe, and were handled in strict accordance with good animal practice as defined by the NIH guidelines. Athymic nude mice (Foxn1^nu/Foxn1^+, 4–5 weeks, female) were purchased from Harlan (Indianapolis, IN). The mice had free access to standard pellet food and water. The animals were acclimated to animal house facility conditions at a temperature of 18–25°C, with a relative humidity of 55 to 65% and a 12 h light/dark cycle, for one week prior to the experiments. MDA-MB-231/GFP human breast cancer cells were cultured and resuspended in serum-free DMEM medium (20 μl). After anesthesia, cell suspensions (1 × 10^6 cells/20 μl) were inoculated subcutaneously into the second mammary gland fat pad just beneath the nipple of each animal to generate orthotopic breast tumors. […] The mice were monitored by measuring tumor volume, body weight, and clinical observation. Tumor volume (V) was calculated by V = L/2 × W^2, where L was the length and W was the width of tumors. The results are presented as average ± S.E.M. Differences among various treatment groups were determined by the analysis of variance (ANOVA) followed by Dunnett's test using PASW statistics version 18. […]

[5] = 2D proliferation (Cell Titer Blue); type: cell-based; conditions: up to 72 hours; for effect on serum-free proliferation (2D): serum-free RPMI
Procedure: Cells were seeded to ~30% confluency prior to treatment with DIDS or H2DIDS at 0.5 μM, 2 μM, 8 μM, 32 μM, or 64 μM for 24 hours, 48 hours, or 72 hours in complete or serum-free RPMI. A T0 timepoint was also measured. For each timepoint, cells were exposed to Cell Titer Blue reagent (Promega) for 1 hour at 37°C 5% CO2. Experiments were performed with quadruplicate replicates. Fluorescence was measured using a BioTek Synergy 4 plate reader with Gen5 software.

c-Met M1250T (M1268T) = c-Met M1250T (M1268T) (Homo sapiens, UniProt P08581, M1250T); test: Z'-LYTE kinase phosphorylation inhibition assay, mutant c-Met; type: biochemical; conditions: 200 μM ATP, cell-free
Chain of c-Met M1250T (M1268T) (P08581 956-1390 M1250T limits assumed): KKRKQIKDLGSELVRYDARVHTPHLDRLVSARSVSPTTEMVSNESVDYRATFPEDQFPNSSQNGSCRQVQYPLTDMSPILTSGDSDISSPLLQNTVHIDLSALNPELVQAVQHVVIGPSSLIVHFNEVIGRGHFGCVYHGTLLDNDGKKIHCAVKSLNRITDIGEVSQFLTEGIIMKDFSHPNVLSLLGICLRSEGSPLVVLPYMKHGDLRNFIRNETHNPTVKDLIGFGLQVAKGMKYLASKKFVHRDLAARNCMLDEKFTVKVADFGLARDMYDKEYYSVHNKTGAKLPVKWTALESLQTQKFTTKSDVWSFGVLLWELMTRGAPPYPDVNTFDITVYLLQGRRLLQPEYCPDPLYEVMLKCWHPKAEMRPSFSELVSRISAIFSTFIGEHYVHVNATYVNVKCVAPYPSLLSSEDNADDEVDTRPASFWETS
Procedure: (§4) Z'-LYTE™ Kinase Assay-Tyr6 Peptide kit (Invitrogen) was used to assess the ability of tested compounds to inhibit c-Met phosphorylation. Briefly, 20 μl/well reactions were set up in 96-well plates containing kinase buffer, 200 μM ATP, 4 μM Z-LYTE™ Tyr6 Peptide substrate, 2500 ng/ml c-Met kinase and DIDS or H2DIDS at various concentrations. After 1 hour incubation at room temperature, 10 μl development solution containing site-specific protease was added to each well. Incubation was continued for 1 hour. The reaction was then stopped, and the fluorescent signal ratio of 445 nm (coumarin)/520 nm (fluorescein) was determined on a plate reader (BioTek FLx800™), which reflects the peptide substrate cleavage status and/or the kinase inhibitory activity in the reaction. […] The IC50 value for each compound was calculated by nonlinear regression of log concentration versus % c-Met phosphorylation ± S.E.M., implemented in GraphPad Prism version 5.0 (GraphPad Software, CA, USA).

EGFR = molecular target: T3, EGFR (Homo sapiens, UniProt P00533); test: EGF-induced EGFR activation, western blot, DU145; type: cell-based; conditions: DU145, 100 ng/ml EGF 20 minutes, 4 μM DIDS or 25 μM H2DIDS
T3 construct: 100 ng/ml EGF b; endogenous in cells; host or cells: DU145
T3 sequence (P00533 25-1210): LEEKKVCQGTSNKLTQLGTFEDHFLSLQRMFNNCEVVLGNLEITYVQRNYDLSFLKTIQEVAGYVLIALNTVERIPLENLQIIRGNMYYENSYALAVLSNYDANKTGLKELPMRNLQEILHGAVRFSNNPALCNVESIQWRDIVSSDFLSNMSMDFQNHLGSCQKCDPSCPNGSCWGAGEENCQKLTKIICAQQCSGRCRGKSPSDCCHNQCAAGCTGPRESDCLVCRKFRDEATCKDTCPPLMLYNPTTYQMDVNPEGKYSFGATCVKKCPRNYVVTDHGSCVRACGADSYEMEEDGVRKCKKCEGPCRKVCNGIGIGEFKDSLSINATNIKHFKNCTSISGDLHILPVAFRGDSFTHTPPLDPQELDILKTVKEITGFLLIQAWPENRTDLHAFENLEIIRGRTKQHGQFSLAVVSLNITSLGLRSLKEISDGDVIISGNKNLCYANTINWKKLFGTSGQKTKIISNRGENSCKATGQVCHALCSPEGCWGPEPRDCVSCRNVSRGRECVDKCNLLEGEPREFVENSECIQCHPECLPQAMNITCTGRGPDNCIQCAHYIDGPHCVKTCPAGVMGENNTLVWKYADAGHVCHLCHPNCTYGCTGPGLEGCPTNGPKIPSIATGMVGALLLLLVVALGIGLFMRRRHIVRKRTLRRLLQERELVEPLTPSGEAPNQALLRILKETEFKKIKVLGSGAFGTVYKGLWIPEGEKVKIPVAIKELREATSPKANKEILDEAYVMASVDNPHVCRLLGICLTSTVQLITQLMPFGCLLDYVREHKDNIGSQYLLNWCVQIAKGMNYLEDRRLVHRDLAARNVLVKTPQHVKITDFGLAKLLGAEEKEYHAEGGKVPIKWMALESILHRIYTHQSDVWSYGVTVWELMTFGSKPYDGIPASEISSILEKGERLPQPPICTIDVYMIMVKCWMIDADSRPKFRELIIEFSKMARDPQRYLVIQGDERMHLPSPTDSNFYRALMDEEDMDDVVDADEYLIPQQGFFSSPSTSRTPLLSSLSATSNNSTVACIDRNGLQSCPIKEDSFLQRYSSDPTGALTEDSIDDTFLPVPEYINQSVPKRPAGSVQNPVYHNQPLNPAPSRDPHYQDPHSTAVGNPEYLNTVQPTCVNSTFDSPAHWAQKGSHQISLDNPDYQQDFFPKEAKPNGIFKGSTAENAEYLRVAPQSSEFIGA
Procedure: as §1

wild-type c-Met = wild-type c-Met (Homo sapiens, UniProt P08581); test: Z'-LYTE kinase phosphorylation inhibition assay, wild-type c-Met; type: biochemical
Chain of wild-type c-Met (P08581 25-1390): as the sequence (P08581 25-1390) above
Procedure: as §4

[6] = tested on: protein translocation across the ER membrane; parameters: method as in PMID 8396042; conditions: cited from earlier work
c-Met [7] = molecular target: T1, c-Met; test: Constitutive pMet in c-Met amplified H1993 cells, western blot; type: cell-based; parameters: endogenous in cells; conditions: 5 μM compound, no HGF
Procedure: as §1

[8] = Tolerability in xenograft mice; type: in vivo
Procedure: as §3

c-Met [9] = molecular target: T1, c-Met; test: Washout and reversal of c-Met phosphorylation in DU145, western blot; type: cell-based; parameters: endogenous in cells; host or cells: DU145; conditions: wash
Procedure: as §1

Akt = test: Downstream Akt phosphorylation, western blot, DU145; type: cell-based; conditions: DU145, serum-free, HGF, ~8 μM compound
Procedure: as §1

DU145 cells [10] = test: HGF-induced wound healing; type: cell-based; conditions: DU145, 33 ng/ml HGF, 4 μM DIDS or 25 μM H2DIDS
Procedure: as §2

[11] = tested on: matrix metalloproteinase release; parameters: method as in PMID 22937143; conditions: cited from earlier work
DU145 cells [12] = test: HGF-induced invasion through Matrigel; type: cell-based; conditions: DU145, 33 ng/ml HGF, Matrigel diluted 1:5
Procedure: as §2

[13] = DU145, serum-free, 33 ng/ml HGF 20 minutes

## O=S(=O)(O)c1cc(N=C=S)ccc1C=Cc1ccc(N=C=S)cc1S(=O)(=O)O [DIDS, 4,4′-Diisothiocyanatostilbene-2,2′-disulfonic acid]
c-Met [1]
  effective concentration for c-Met inhibition in 10% FBS versus serum-free: slightly higher effective concentrations
c-Met [1]; [13]
  reduction of c-Met activation: ~ 90%
DU145 cells [2]
  effect on EGF-mediated wound healing: minimal effects
IGFR
  effect on IGFR activation: do not significantly reduce
DU145 cells [3]
  effect on HGF-induced cell scattering: able to reduce HGF-induced
DU145 spheroids
  decrease of HGF-induced DU145 spheroid growth: ~ 60%
[4]; 3X/week
  tumor size (caliper): began to reduce tumor size towards the end of the experiment
[4]; versus DMSO control
  tumor weight at necropsy: Differences in overall tumor weight were evident
[5]
  effect on proliferation in complete media (2D): minimal effects
  effect on serum-free proliferation (2D): minimal effects
c-Met M1250T (M1268T)
  pIC50: 6.43
EGFR
  effect on EGFR activation: do not significantly reduce
wild-type c-Met; 200 μM ATP, cell-free, read-out: IC50, wild-type c-Met
  pIC50: 6.52
[6]
  concentration inhibiting protein translocation across the ER membrane: ≥ 400 µM
c-Met [7]
  effect on pMet levels in H1993 cells: much less significant effects
[8]; 5 mg/kg intraperitoneally, ~2 weeks
  signs of toxicity: No obvious signs of toxicity
[8]; 5 mg/kg then 10 mg/kg i.p., 3X/week
  body weight versus DMSO control: no change in body weight
c-Met [9]; DU145, 33 ng/ml HGF 20 minutes, 4 μM for 20 or 60 minutes
  effect on pMet when given post HGF treatment: reduced pMet levels
c-Met [9]; DU145, 4 μM 20 minutes, then 33 ng/ml HGF 20 minutes
  reversibility of c-Met inhibition after washout: does not irreversibly bind c-Met
Akt
  reduction of downstream Akt: ~ 90%
DU145 cells [10]
  effect on HGF-induced wound healing: significantly reduced
[11]
  concentration inhibiting matrix metalloproteinase release: ≥ 400 µM
DU145 cells [12]
  effect on HGF-induced invasion: reduce HGF-induced wound healing and invasion in a dose-dependent manner

## O=[N+]([O-])c1ccc(C=Cc2ccc([N+](=O)[O-])cc2S(=O)(=O)O)c(S(=O)(=O)O)c1 [DNDS, 4,4′-dinitrostilbene-2,2′-disulfonic acid]
c-Met [1]; DU-145, read-out: inhibition of c-Met
  inhibition at 2000 µM: ~90%

## O=S(=O)(O)c1cc(N=C=S)ccc1CCc1ccc(N=C=S)cc1S(=O)(=O)O [H2DIDS, 4,4′-Diisothiocyanatodihydrostilbene-2,2′-disulfonic acid]
c-Met [1]
  effective concentration for c-Met inhibition in 10% FBS versus serum-free: slightly higher effective concentrations
c-Met [1]; [13]
  reduction of c-Met activation: ~ 90%
DU145 cells [2]
  effect on EGF-mediated wound healing: minimal effects
IGFR
  effect on IGFR activation: do not significantly reduce
DU145 cells [3]
  effect on HGF-induced cell scattering: able to reduce HGF-induced
DU145 spheroids
  decrease of HGF-induced DU145 spheroid growth: ~ 60%
[5]
  effect on proliferation in complete media (2D): minimal effects
  effect on serum-free proliferation (2D): minimal effects
EGFR
  effect on EGFR activation: do not significantly reduce
wild-type c-Met
  pIC50: 5.44
c-Met [7]
  effect on pMet levels in H1993 cells: much less significant effects
DU145 cells [10]
  effect on HGF-induced wound healing: significantly reduced
DU145 cells [12]
  effect on HGF-induced invasion: reduce HGF-induced wound healing and invasion in a dose-dependent manner

## CC(=O)Nc1ccc(C=Cc2ccc(N=C=S)cc2S(=O)(=O)O)c(S(=O)(=O)O)c1 [SITS, 4-acetamido-4′-isothiocyanatostilbene-2,2′-disulfonic acid]
c-Met [1]; DU-145, DU145, serum-free, 33 ng/ml HGF 20 minutes, 250 μM compound
  inhibition at 250 µM: ~90%

## Cc1[nH]c(/C=C2\C(=O)Nc3ccc(S(=O)(=O)N(C)c4cccc(Cl)c4)cc32)c(C)c1C(=O)N1CCN(C)CC1 [SU11274]
wild-type c-Met; 500 nM compound, cell-free kinase assay
  reduction of c-Met phosphorylation: ~ 70%
c-Met [7]
  effect on pMet levels in H1993 cells: ameliorated pMet levels
